Experimental data reported in ChEMBL document CHEMBL1201862, “PubChem BioAssay data set” (2004).
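1) Cells in 96-well plates. 2) Compound, 48 h, 5 concentrations. 3) Linear interpolation between surrounding doses. 4) Unreached endpoint = highest concentration. Here, GI50 denotes the concentration required for 50% inhibition of growth.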 The source made the active and inactive calls. Rule as the data show it: active = GI50 up to about 1.1 µM and inactive = higher.

Experiments:
Assay in all cases: NCI-60 cell line screen, 48 h
T47D = test system: T47D
MDA-MB-231 = test system: MDA-MB-231
786-0 = test system: 786-0
MDA-MB-435 = test system: MDA-MB-435
Malme-3M = test system: Malme-3M
HL-60 = test system: HL-60
A498 = test system: A498
EKVX = test system: EKVX
IGROV-1 = test system: IGROV-1
SK-MEL-28 = test system: SK-MEL-28
U-251 = test system: U-251
NCI/ADR-RES = test system: NCI/ADR-RES
SF-268 = test system: SF-268
SNB-19 = test system: SNB-19
MOLT-4 = test system: MOLT-4
KM12 = test system: KM12
RPMI-8226 = test system: RPMI-8226
LOX IMVI = test system: LOX IMVI
COLO 205 = test system: COLO 205
SNB-75 = test system: SNB-75

Measured: GI50

COCOC1/C=C/CCCC#C[C@H](C)C(=O)CC1 (stereo not given in full)
inactive: T47D 9.04 µM | MDA-MB-231 4.25 µM | 786-0 4.21 µM | MDA-MB-435 7 µM | Malme-3M 6.68 µM | HL-60 2.32 µM | A498 12.1 µM | EKVX 10.4 µM | IGROV-1 9.27 µM | SK-MEL-28 15.2 µM | U-251 12.2 µM | NCI/ADR-RES 11.8 µM | SF-268 12.2 µM | SNB-19 17.9 µM | MOLT-4 2.96 µM | KM12 4.85 µM | RPMI-8226 2.21 µM | LOX IMVI 3.05 µM | COLO 205 5.45 µM | SNB-75 11.1 µM

O=C(c1cccc(F)c1F)N1CCc2c([nH]c3ccccc23)C1c1ccc2c(c1)OCO2 (stereo not given)
inactive: T47D 10.6 µM | MDA-MB-231 7.87 µM | 786-0 22.5 µM | MDA-MB-435 2.23 µM | Malme-3M 28.4 µM | HL-60 3.4 µM | A498 7.55 µM | EKVX 8.32 µM | IGROV-1 16.2 µM | SK-MEL-28 32.1 µM | U-251 11.1 µM | NCI/ADR-RES 5.56 µM | SF-268 27.3 µM | SNB-19 7.76 µM | MOLT-4 5.24 µM | KM12 4.92 µM | RPMI-8226 8.2 µM | LOX IMVI 20.2 µM | COLO 205 3.59 µM | SNB-75 1.99 µM
